Experimental data as given in patent US4374139A, “Levorotatory N-substituted acylmorphinans useful as analgesic agents” (priority 1981, dated 1983).
Counter-ions that a name gives are not always drawn. Like-named read-outs stand apart in the source and are kept apart here.

Legend:
[1] = test system: mice exposed to radiant heat stimulus on the tail; assay: animal or person; type: in vivo, male mice (Charles River, CF-1/CD)
From the text: (§1) The ED50 was the dose which reduced the total number of writhes by 50%. […] A modification of the tail flick test described by Dewey and Harris (in: S. Ehrenpreis and A. Neidle (eds.), Methods in Narcotics Research, Marcel Dekker, Inc., New York, 1975, pp. 101-108) was used to measure the tail flick reaction times following oral or subcutaneous administration of the compounds of formula I of the invention.
More specifically, groups of 10 male mice (Charles River, CF-1/CD, 18-22 gm) were placed in individual stainless steel, ventilated, cylindrical restrainers with their tails protruding through a hole at one end. The restraining tubes were positioned on a sliding platform so that each mouse, in turn, could be exposed to a high intensity lamp. The rays from the lamp were focused by means of a parabolic reflector directly on the tail. The intensity of the heat was adjusted by means of a rheostat so that untreated mice would responsed in approximately 2 to 4 seconds. When the endpoint response occurred (a sudden twitch of the tail, removing it from the path of the radiant heat stimulus), the experimenter stopped a reaction time clock. In the event that no response occurred within 10 seconds (the cutoff time), the tester terminated the trial and assigned a latency score of 10 seconds for that trial. The reaction time of each mouse was determined before and again 30,60,90 and 120 minutes after treatment.
Each group of 10 mice was treated orally or subcutaneously with vehicle (normal saline) or with logarithmically spaced doses of the test compounds. For most compounds, four dose levels, which were studied in a single test session, were sufficient to provide a satisfactory estimate of the ED50. Occasionally, five or six does levels were needed. […] Because of this, some vehicle control groups and dosed groups consisted of a total of 20 mice, rather than 10.
(§2) Doses were calculated as the salts of all the compounds. Injection volume was 0.1 ml/10 g body weight. For each test compound, ED 50 values were calculated separately for each test. Log dose regression analysis and Fieller's Theorem were used to compute the ED 50 and its 95 percent confidence limits. The analysis was performed on the tail flick latency scores of all mice that were treated with a test compound. For any given test, the average tail flick latency score of the vehicle control group was calculated and a latency value, Z, was derived from this, as follows: [formula] where the cutoff time was 10 seconds. […] The value of Z was entered as an interpolate into the regression analysis so that an ED50, defined as the dose that increased tail flick latencies by 50 percent of the maximum possible response, could be computed.

[2] = test system: mice exposed to intra-abdominally induced chemical pain; assay: animal or person; type: in vivo, mouse
Experimental: as §1, §2

[3] = mouse, oral, dose that increased tail flick latencies by 50 percent of the maximum possible response, cutoff 10 seconds, doses as the salts, read-out: ED50 Tail Flick Oral
[4] = sc, mouse, subcutaneous, dose that increased tail flick latencies by 50 percent of the maximum possible response, cutoff 10 seconds, doses as the salts, read-out: ED50 Tail Flick Subcu.
[5] = mouse, oral, dose which reduced the total number of writhes by 50%, doses as the salts, read-out: ED50 Writhing Oral
[6] = sc, mouse, subcutaneous, dose which reduced the total number of writhes by 50%, doses as the salts, read-out: ED50 Writhing Subcu.
[7] = Mus musculus, po, read-out: ED50 Tail Flick Oral
[8] = Mus musculus, sc, read-out: ED50 Tail Flick Subcu.
[9] = Mus musculus, po, read-out: ED50 Writhing Oral
[10] = Mus musculus, sc, read-out: ED50 Writhing Subcu.

| SMILES | ED50 [1, 3] [mg/kg] | ED50 [1, 4] [mg/kg] | ED50 [2, 5] [mg/kg] | ED50 [2, 6] [mg/kg] | ED50 [1, 7] [mg/kg] | ED50 [1, 8] [mg/kg] | ED50 [2, 9] [mg/kg] | ED50 [2, 10] [mg/kg] |
| --- | --- | --- | --- | --- | --- | --- | --- | --- |
| CC(=O)c1ccc2c(c1)[C@@]13CCCC[C@H]1[C@@H](C2)N(CC1CC1)CC3.Cl [(-)-1-[N-(cyclopropylmethyl)morphinan-3-yl]-ethanone hydrochloride] | 1.5 | 2.3 | 2.1 | 0.18 |  |  |  |  |
| CCC(=O)c1ccc2c(c1)[C@@]13CCCC[C@H]1[C@@H](C2)N(C)CC3.Cl [(-)-1-(17-methylmorphinan-3-yl)-1-propanone hydrochloride] | 12 | 2.3 | 1.9 | 0.22 |  |  |  |  |
| CC(=O)c1ccc2c(c1)[C@@]13CCCC[C@H]1[C@@H](C2)N(CC=C(C)C)CC3.O.O=C(O)C(O)C(O)C(=O)O [(-)-1-[17-(3-methyl-2-butenyl)morphinan-3-yl]ethanone d-tartrate monohydrate] |  |  |  |  | 115 | ~50 | 43 | 5.9 |
| CC(=O)c1ccc2c(c1)C[C@@H]1[C@@H]3CCCC[C@]23CCN1C.O=C(O)C(O)C(O)C(=O)O [(-)-2-acetyl-N-methylmorphinan d-tartrate] |  |  |  |  | 75 | > 50 | 22.3 | 4 |
| CC(=O)c1ccc2c(c1)[C@@]13CCCC[C@H]1[C@@H](C2)N(CCc1ccccc1)CC3 [(-)-1-[N-(2-phenethyl)morphinan-3-yl]ethanone d-tartrate hemihydrate] | 10.4 | 1.8 | 1.2 | 0.39 |  |  |  |  |
| CN1CC[C@]23CCCC[C@H]2[C@H]1Cc1ccc(C(C)(C)O)cc13 [(-)-α,α-17-trimethylmorphinan-3-methanol hydrochloride] | 12 | 4.3 | 2.5 | 1.05 |  |  |  |  |
| CC(=O)c1ccc2c(c1)[C@@]13CCCC[C@H]1[C@@H](C2)N(CC1CCC1)CC3.Cl [(-)-3-acetyl-N-cyclobutylmethylmorphinan hydrochloride] | 27.6 | 4.9 | 5.7 | 1.2 |  |  |  |  |
| CN1CC[C@]23CCCC[C@H]2[C@H]1Cc1ccc(C(=O)c2ccccc2)cc13.O=C(O)C(O)C(O)C(=O)O [(-)-(17-methylmorphinan-3-yl)phenylmethanone d-tartrate] |  |  |  |  | > 200 | > 50 | 35.5 | 22.2 |
| CC(=O)c1ccc2c(c1)[C@@]13CCCC[C@H]1[C@@H](C2)N(C)CC3.O=C(O)C(O)C(O)C(=O)O [(-)-3-acetyl-N-methylmorphinan d-tartrate] |  |  |  |  | 2 | 3.9 | 0.5 | 0.08 |
| CC(=O)c1ccc2c(c1)[C@@]13CCCC[C@H]1[C@@H](C2)N(CCC#N)CC3.Cl [(-)-3-acetyl-17-morphinanpropanenitrile hydrochloride] | 51.2 | 6.1 | 4.4 | 0.57 |  |  |  |  |
| CC(O)c1ccc2c(c1)[C@@]13CCCC[C@H]1[C@@H](C2)N(C)CC3 (stereo partly drawn) [(-)-α-17-dimethylmorphinan-3-methanol hydrochloride] | 1.1 | 1.3 | 0.36 | 0.24 |  |  |  |  |
